# Laboratory results taken from patent publication US20220273659A1, “HETEROCYCLIC COMPOUNDS AS KINASE INHIBITORS” (NUVATION BIO INC., priority 2019, published 2022).
# pIC50: −log10 of the molar value. Like-named read-outs stand apart in the source and are kept apart here.
# Key:
# CDK4 = target: T1, CDK4 (Homo sapiens, UniProt P11802); test: In vitro kinase inhibition IC50, luminescence (ADP Glo), retinoblastoma substrate; format: biochemical; conditions: read-out: CDK4/D1 IC50
# T1 construct: purchased Invitrogen PR8064A
# T1 sequence (P11802 whole entry): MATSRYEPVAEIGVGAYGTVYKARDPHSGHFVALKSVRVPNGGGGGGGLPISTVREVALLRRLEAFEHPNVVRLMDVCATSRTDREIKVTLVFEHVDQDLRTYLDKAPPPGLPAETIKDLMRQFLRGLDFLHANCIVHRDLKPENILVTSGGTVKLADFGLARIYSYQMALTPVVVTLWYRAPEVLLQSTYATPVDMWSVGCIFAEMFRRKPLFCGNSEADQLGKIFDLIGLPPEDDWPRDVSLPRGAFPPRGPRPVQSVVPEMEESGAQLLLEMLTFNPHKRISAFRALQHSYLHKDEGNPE
# T1 sequence (P24385 whole entry partner): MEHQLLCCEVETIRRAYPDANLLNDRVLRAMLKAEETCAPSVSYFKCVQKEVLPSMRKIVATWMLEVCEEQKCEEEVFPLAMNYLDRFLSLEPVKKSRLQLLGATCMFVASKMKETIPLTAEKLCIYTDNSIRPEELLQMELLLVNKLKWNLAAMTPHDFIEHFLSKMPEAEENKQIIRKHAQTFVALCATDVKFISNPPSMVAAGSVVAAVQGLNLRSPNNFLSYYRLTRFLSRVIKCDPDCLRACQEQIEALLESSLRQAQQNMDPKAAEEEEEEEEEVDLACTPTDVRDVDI
# Summary of the method: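 CDK4 enzyme (5 nM, Invitrogen) was combined with test compound and a mix of retinoblastoma substrate (1 μM) plus ATP (25 μM) in kinase buffer, 30 μL/well in 96-well half area white plates. After 2H at room temperature, ADP Glo reagent stopped the reaction for 45 min, then detection reagent was added and luminescence was read.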
# CDK6 = target: T2, CDK6 (Homo sapiens, UniProt Q00534); test: as above; format: biochemical; conditions: read-out: CDK6/D1 IC50
# T2 construct: purchased Invitrogen PR8422B
# T2 sequence (Q00534 whole entry): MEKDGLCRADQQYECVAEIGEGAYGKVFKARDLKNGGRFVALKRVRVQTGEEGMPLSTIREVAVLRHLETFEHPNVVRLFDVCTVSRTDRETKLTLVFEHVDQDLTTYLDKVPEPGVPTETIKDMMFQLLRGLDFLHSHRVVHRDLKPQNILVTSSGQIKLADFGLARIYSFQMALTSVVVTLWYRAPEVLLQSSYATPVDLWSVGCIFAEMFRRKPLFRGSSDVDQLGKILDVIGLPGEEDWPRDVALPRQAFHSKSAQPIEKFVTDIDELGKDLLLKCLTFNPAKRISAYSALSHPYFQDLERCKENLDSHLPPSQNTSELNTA
# T2 sequence (P24385 whole entry partner): as the sequence (P24385 whole entry partner) above
# Summary of the method: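 Recombinant CDK6 (5 nM) with retinoblastoma substrate (1 μM) and 25 μM ATP, compound at final 0.1–200 nM, incubated 2 h at room temperature. ADP formed detected by ADP-Glo luminescence. IC50 from four-parameter logistic fit of percent inhibition.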
# CDK1 (cyclin B) = target: T3, CDK1 (cyclin B) (Homo sapiens, UniProt P06493); test: Z'-LYTE kinase assay; format: biochemical
# T3 construct: purchased Invitrogen Life Technologies (assay service)
# T3 sequence (P06493 whole entry): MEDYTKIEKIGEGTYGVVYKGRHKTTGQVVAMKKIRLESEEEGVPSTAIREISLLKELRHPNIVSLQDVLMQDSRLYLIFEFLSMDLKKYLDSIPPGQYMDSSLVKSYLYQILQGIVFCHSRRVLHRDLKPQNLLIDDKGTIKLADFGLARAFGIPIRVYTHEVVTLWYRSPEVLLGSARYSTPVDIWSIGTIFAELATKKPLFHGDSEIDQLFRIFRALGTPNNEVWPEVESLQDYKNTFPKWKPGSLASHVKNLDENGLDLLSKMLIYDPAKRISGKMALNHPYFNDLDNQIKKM
# T3 sequence (P14635 whole entry partner): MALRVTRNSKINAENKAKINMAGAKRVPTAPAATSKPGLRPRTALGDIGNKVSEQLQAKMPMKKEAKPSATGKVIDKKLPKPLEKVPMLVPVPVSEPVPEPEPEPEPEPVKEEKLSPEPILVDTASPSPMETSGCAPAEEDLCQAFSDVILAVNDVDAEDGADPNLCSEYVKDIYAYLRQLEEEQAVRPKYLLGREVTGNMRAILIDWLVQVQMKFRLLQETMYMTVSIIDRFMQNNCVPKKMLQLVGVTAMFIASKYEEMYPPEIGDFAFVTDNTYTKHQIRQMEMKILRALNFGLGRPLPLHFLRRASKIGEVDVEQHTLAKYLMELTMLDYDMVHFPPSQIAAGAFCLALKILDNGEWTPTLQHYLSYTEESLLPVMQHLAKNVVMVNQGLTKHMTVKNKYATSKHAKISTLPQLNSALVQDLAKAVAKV
# Method: The plates were shaken for 30 seconds, and incubated for 60 minutes at room temperature. […] The plates were read on fluorescence plate reader with Dual emission at 445 nm and 520 nm.
# The following equations were used for Z′-LYTE™ Screening Assay Data Analysis.
# CDK2 (cyclin A) = target: T4, CDK2 (cyclin A) (Homo sapiens, UniProt P24941); test: Z'-LYTE kinase assay; format: biochemical
# T4 construct: purchased Invitrogen Life Technologies (assay service)
# Method: IC50 values of compounds against CDK2 (cyclin A) were determined by Z′-LYTE™ These screening assays were performed at Invitrogen Life Technologies (Grand Island, N.Y.) on a low volume NBS, black 384-well plate (#4514, Corning). 0.1 μL of 100×test compound in 100% DMSO (at specific solutions) was mixed with 2.4 μL of Kinase Buffer (50 mM HEPES pH 7.5, 0.01% BRIJ-35, 10 mM MgCl2, 1 mM EGTA), 5 μL of 2× Kinase (1.22-10.3 ng CDK2/cyclin A)/Peptide (2 μM Ser/Thr 12), and 2.5 μL of 4×ATP solution (31 μM). The plates were shaken for 30 seconds, and incubated for 60 minutes at room temperature. Development Reagent Solution (5 μL of 1:1024 dilution) was added to the plates followed with another 30-second plate shake and the plates were further incubated at room temperature for one hour. The plates were read on fluorescence plate reader with Dual emission at 445 nm and 520 nm.
# The following equations were used for Z′-LYTE™ Screening Assay Data Analysis. Percent inhibition (100-% activity) was fitted to the “four-parameter logistic model” in XLfit for determination of IC50 values.
# [1] = test system: MCF-7 breast adenocarcinoma cells; test: Cancer cell proliferation assay, single agent (cell viability); format: cell-based; conditions: Homo sapiens, MCF7, Table 4; Rb positive; treatment 144 Hr with medium change at 72 Hr; Cell Titer-Glo or resazurin
# Summary of the method: (§1)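 Cells seeded day 1, then exposed on day 2 to 7–9 compound concentrations (e.g. 1.1 nM–10 μM); BT-549 for 24 h, MCF-7 and DU4475 for 144 h with medium change at 72 h. Viability by CellTiter-Glo or resazurin; IC50 from variable-slope sigmoidal fit.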
# [2] = test system: DU4475 breast carcinoma cells; test: as above; format: cell-based; conditions: Homo sapiens, DU-4475; Table 4; Rb negative; treatment 144 Hr with medium change at 72 Hr; Cell Titer-Glo or resazurin
# Summary of the method: as §1
# PI3Kδ kinase = target: T5, PI3Kδ kinase (Homo sapiens, UniProt O00329); test: PI3Kδ kinase assay (ADP-Glo, Reaction Biology); format: biochemical
# T5 construct: purchased Reaction Biology Corporation (assay service)
# T5 sequence (O00329 whole entry): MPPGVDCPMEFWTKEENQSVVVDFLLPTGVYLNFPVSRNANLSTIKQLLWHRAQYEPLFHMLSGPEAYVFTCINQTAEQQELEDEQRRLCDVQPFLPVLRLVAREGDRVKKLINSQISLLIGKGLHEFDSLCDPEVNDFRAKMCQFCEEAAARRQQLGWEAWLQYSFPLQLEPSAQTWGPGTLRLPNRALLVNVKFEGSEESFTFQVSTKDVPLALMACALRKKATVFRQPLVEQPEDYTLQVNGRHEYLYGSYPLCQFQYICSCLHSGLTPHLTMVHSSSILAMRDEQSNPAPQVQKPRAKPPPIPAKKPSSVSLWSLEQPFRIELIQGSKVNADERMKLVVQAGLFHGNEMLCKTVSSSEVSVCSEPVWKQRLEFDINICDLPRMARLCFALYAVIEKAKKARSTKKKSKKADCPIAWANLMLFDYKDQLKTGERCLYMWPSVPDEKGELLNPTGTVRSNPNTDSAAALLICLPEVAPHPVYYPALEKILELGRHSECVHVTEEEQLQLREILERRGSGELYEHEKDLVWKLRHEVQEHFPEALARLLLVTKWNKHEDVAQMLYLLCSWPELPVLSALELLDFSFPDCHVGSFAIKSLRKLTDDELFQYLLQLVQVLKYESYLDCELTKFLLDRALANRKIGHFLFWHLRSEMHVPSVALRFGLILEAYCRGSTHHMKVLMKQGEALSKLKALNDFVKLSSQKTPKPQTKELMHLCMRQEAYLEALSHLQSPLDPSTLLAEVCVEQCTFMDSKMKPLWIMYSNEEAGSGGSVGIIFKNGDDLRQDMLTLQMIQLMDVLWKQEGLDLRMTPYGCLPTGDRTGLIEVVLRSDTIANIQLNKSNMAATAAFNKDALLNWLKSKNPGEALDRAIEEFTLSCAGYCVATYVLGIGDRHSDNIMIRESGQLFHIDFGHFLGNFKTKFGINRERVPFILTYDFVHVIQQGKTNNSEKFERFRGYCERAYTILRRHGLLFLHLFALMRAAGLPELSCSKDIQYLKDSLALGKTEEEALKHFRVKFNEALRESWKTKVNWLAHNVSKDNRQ
# T5 sequence (P27986 whole entry partner): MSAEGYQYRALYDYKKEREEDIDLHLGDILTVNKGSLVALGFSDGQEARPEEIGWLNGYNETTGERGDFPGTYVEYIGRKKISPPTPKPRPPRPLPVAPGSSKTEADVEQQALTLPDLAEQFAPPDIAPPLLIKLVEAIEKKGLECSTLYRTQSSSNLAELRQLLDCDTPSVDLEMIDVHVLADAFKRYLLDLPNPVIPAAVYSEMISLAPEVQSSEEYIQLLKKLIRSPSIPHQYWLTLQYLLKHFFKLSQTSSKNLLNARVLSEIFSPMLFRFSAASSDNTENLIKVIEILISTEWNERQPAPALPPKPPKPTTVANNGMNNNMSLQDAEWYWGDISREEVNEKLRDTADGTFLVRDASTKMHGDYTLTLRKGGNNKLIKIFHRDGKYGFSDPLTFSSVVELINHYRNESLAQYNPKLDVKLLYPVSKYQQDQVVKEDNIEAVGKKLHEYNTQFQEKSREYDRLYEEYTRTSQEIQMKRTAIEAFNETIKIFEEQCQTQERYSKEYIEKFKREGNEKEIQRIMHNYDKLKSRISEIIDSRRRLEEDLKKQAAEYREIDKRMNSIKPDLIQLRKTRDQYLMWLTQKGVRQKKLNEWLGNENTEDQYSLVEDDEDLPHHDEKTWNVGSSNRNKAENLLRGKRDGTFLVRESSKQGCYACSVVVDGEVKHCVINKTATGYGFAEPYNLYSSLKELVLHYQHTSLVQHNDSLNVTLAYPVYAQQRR
# Summary of the method: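 Kinase in Tris-HCl 40 mM pH 7.5, MgCl2 20 mM, orthovanadate 3 mM, DTT 2 mM, 0.05% CHAPS, 1% DMSO, preincubated 10 min at room temperature with compound (about 0.5 nM–100 μM). ATP started a 30-min reaction at 30 °C. ADP-Glo luminescence converted to μM ADP via standard curve; IC50 from nonlinear regression.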
pIC50 (CDK4),pIC50 (CDK6),pIC50 (CDK1 (cyclin B); read-out: CDK1/B IC50),pIC50 (CDK2 (cyclin A)),pIC50 (CDK1 (cyclin B)),pIC50 [1],pIC50 [2],pIC50 (PI3Kδ kinase),SMILES
8.40,8.35,7.06,7.72,,,,,"CS(=O)(=O)N1CCC(Nc2ncc3cc(C(F)F)c(=O)n(C4CC5CCC4C5)c3n2)CC1 (racemic) [Compound 401, 8-((1S,2S,4R)-bicyclo[2.2.1]heptan-2-yl)-6-(difluoromethyl)-2-((1-(methylsulfonyl)piperidin-4-yl)amino)pyrido[2,3-d]pyrimidin-7(8H)-one]"
8.60,8.35,,8.30,7.51,,,,"CS(=O)(=O)N1CCC(Nc2ncc3cc(C(F)F)c(=O)n([C@H]4C[C@H]5C[C@H]5C4)c3n2)CC1 [Compound 196, 8-((1R,3R,5S)-bicyclo[3.1.0]hexan-3-yl)-6-(difluoromethyl)-2-((1-(methylsulfonyl)piperidin-4-yl)amino)pyrido[2,3-d]pyrimidin-7(8H)-one]"
7.89,7.96,,7.74,7.18,,,,"Cn1ccc(S(=O)(=O)N2CCC(Nc3ncc4cc(C(F)F)c(=O)n([C@H]5C[C@@H]6CC[C@H]5C6)c4n3)CC2)n1 [Compound 395, 8-((1S,2S,4R)-bicyclo[2.2.1]heptan-2-yl)-6-(difluoromethyl)-2-((1-((1-methyl-1H-pyrazol-3-yl)sulfonyl)piperidin-4-yl)amino)pyrido[2,3-d]pyrimidin-7(8H)-one]"
7.77,8.15,,7.85,7.00,,,,"Cn1ccc(S(=O)(=O)N2CCC(Nc3ncc4cc(C(F)F)c(=O)n([C@@H]5C[C@H]6CC[C@@H]5C6)c4n3)CC2)n1 [Compound 396, 8-((1R,2R,4S)-bicyclo[2.2.1]heptan-2-yl)-6-(difluoromethyl)-2-((1-((1-methyl-1H-pyrazol-3-yl)sulfonyl)piperidin-4-yl)amino)pyrido[2,3-d]pyrimidin-7(8H)-one]"
7.01,7.27,< 5.30,5.56,,5.56,5.35,,"N#Cc1cc2cnc(Nc3ccc4c(n3)CCNC4)nc2n(C2CCCC2)c1=O [Compound No. 61, 8-cyclopentyl-7-oxo-2-((5,6,7,8-tetrahydro-1,6-naphthyridin-2-yl)amino)-7,8-dihydropyrido[2,3-d]pyrimidine-6-carbonitrile]"
7.96,8.40,6.18,6.72,,6.58,5.84,,"CN(C)CCN1CCc2cc(Nc3ncc4cc(C#N)c(=O)n(C5CCCC5)c4n3)ccc2C1 [Compound No. 63, 8-cyclopentyl-2-((2-(2-(dimethylamino)ethyl)-1,2,3,4-tetrahydroisoquinolin-6-yl)amino)-7-oxo-7,8-dihydropyrido[2,3-d]pyrimidine-6-carbonitrile]"
7.77,7.82,6.10,6.77,,6.24,5.70,,"N#Cc1cc2cnc(Nc3ccc4c(c3)CN(CCN)CC4)nc2n(C2CCCC2)c1=O [Compound No. 65, 2-((2-(2-aminoethyl)-1,2,3,4-tetrahydroisoquinolin-7-yl)amino)-8-cyclopentyl-7-oxo-7,8-dihydropyrido[2,3-d]pyrimidine-6-carbonitrile]"
7.92,8.15,6.17,6.60,,5.70,5.77,,"N#Cc1cc2cnc(Nc3ccc4c(c3)CCN(CC(N)=O)C4)nc2n(C2CCCC2)c1=O [Compound No. 69, 2-(6-((6-cyano-8-cyclopentyl-7-oxo-7,8-dihydropyrido[2,3-d]pyrimidin-2-yl)amino)-3,4-dihydroisoquinolin-2(1H)-yl)acetamide]"
7.92,8.22,6.45,7.57,,6.09,5.93,,"N#Cc1cc2cnc(Nc3ccc4c(c3)CCN(C(=O)CO)C4)nc2n(C2CCCC2)c1=O [Compound No. 70, 8-cyclopentyl-2-((2-(2-hydroxyacetyl)-1,2,3,4-tetrahydroisoquinolin-6-yl)amino)-7-oxo-7,8-dihydropyrido[2,3-d]pyrimidine-6-carbonitrile]"
< 6.74,7.25,,6.85,,5.99,5.60,7.12,"COCCn1cc(Nc2ncc3cc(C#N)c(=O)n(C4CCCC4)c3n2)cn1 [Compound No. 104, 8-cyclopentyl-2-((1-(2-methoxyethyl)-1H-pyrazol-4-yl)amino)-7-oxo-7,8-dihydropyrido [2,3-d] pyrimidine-6-carbonitrile]"
7.16,7.47,< 5.47,,,6.17,5.42,6.34,"CN(C)CCn1cc(Nc2ncc3cc(C#N)c(=O)n(C4CCCC4)c3n2)cn1 [Compound No. 105, 8-cyclopentyl-2-((1-(2-(dimethylamino)ethyl)-1H-pyrazol-4-yl)amino)-7-oxo-7,8-dihydropyrido[2,3-d]pyrimidine-6-carbonitrile]"
7.24,7.59,,6.81,,6.08,5.42,7.41,"CN(C)CC(=O)N1CCC(n2cc(Nc3ncc4cc(C#N)c(=O)n(C5CCCC5)c4n3)cn2)CC1 [Compound No. 202, 8-cyclopentyl-2-((1-(1-(dimethylglycyl)piperidin-4-yl)-1H-pyrazol-4-yl)amino)-7-oxo-7,8-dihydropyrido[2,3-d]pyrimidine-6-carbonitrile]"
8.52,8.52,7.01,8.35,,6.18,6.15,,"CS(=O)(=O)N1CCC(Nc2cc3c(cn2)cc(C#N)c(=O)n3C2CCCC2)CC1 [Compound No. 303, 1-cyclopentyl-7-((1-(methylsulfonyl)piperidin-4-yl)amino)-2-oxo-1,2-dihydro-1,6-naphthyridine-3-carbonitrile]"
7.15,7.44,,6.42,,6.35,5.62,7.66,"CN1CCC(n2cc(Nc3ncc4cc(C#N)c(=O)n(C5CCCC5)c4n3)cn2)CC1 [Compound No. 325, 8-cyclopentyl-2-((1-(1-methylpiperidin-4-yl)-1H-pyrazol-4-yl)amino)-7-oxo-7,8-dihydropyrido [2,3-d] pyrimidine-6-carbonitrile]"
7.59,8.05,< 5.30,,,6.19,5.77,5.25,"N#Cc1cc2cnc(Nc3nc(C4CCNCC4)cs3)nc2n(C2CCCC2)c1=O [Compound No. 327, 8-cyclopentyl-7-oxo-2-((4-(piperidin-4-yl)thiazol-2-yl)amino)-7,8-dihydropyrido [2,3-d] pyrimidine-6-carbonitrile]"
7.54,7.21,6.13,6.32,,6.11,5.25,,"N#Cc1cc2cnc(NC3CCCC3O)nc2n(C2CCCC2)c1=O (stereo not shown) [Compound No. 349, 8-cyclopentyl-2-((2-hydroxycyclopentyl)amino)-7-oxo-7,8-dihydropyrido[2,3-d]pyrimidine-6-carbonitrile]"
8.19,8.10,,7.70,6.44,6.31,5.82,,"CC(C)S(=O)(=O)N1CCC(Nc2ncc3cc(C#N)c(=O)n(C4CCCC4)c3n2)CC1 [Compound No. 355, 8-cyclopentyl-2-((1-(isopropylsulfonyl)piperidin-4-yl)amino)-7-oxo-7,8-dihydropyrido[2,3-d]pyrimidine-6-carbonitrile]"
